This note sets out measurements from patent US20150344540A1, “NOVEL GLP-1 RECEPTOR AGONISTS WITH CHOLESTEROL EFFLUX ACTIVITY” (NOVO NORDISK A/S, priority 2012, published 2015).

Like-named read-outs stand apart in the source and are kept apart here. Where a SMILES comes first, the peptide text is derived from it. [ ]: non-standard residue; d: D form. Aib = CC(C)(N)C(=O)O

Experiment [1] relates to Mouse monocyte/macrophage cell line, RAW 264.7. Put plainly: Cholesterol efflux assay (3H-cholesterol, macrophage cell line). The experiment is classed as cell-based. Particulars: RAW 264.7, 4 hrs incubation, 0.1% human serum albumin; for 4 h Cholesterol Efflux Emax: ABCA1-mediated efflux.
In a further experiment the target is human GLP-1 receptor (Homo sapiens, UniProt P43220). Kind of experiment: Functional GLP-1 receptor assay, in vitro potency (CRE luciferase; whole cells). The experiment is classed as cell-based.
[2] abbreviates: BHK cells expressing human GLP-1 receptor, 0% HSA, read-out: GLP1R CRE luc 0% HSA EC50 Mean Value.
[3] abbreviates: GLP1R CRE luc 1% HSA EC50 Mean Value, BHK cells expressing human GLP-1 receptor, 1% HSA.

Chain of human GLP-1 receptor (P43220 24-463): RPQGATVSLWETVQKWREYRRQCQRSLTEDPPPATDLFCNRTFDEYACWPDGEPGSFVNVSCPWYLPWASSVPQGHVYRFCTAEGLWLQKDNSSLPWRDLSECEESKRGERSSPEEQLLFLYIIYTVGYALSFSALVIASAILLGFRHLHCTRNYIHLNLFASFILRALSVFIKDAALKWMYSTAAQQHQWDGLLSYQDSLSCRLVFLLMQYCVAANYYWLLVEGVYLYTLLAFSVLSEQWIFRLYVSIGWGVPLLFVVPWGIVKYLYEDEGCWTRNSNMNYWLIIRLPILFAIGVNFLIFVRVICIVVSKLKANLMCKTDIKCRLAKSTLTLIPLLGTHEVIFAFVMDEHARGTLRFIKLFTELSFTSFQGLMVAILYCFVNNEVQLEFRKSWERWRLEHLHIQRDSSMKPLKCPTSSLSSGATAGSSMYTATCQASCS

A word on the EC50: it is the midpoint of the concentration-response curve. With `CC[C@H](C)[C@H](NC(=O)[C@H](Cc1ccccc1)NC(=O)[C@H](CCC(=O)O)NC(=O)[C@H](CCCCN)NC(=O)[C@@H](NC(=O)[C@H](C)NC(=O)[C@H](CCC(=O)O)NC(=O)CNC(=O)[C@H](CCC(=O)O)NC(=O)[C@H](CC(C)C)NC(=O)[C@H](Cc1ccc(O)cc1)NC(=O)[C@H](CO)NC(=O)[C@H](CO)NC(=O)[C@@H](NC(=O)[C@H](CC(=O)O)NC(=O)[C@H](CO)NC(=O)[C@@H](NC(=O)[C@H](Cc1ccccc1)NC(=O)[C@@H](NC(=O)CNC(=O)[C@H](CCC(=O)O)NC(=O)C(C)(C)NC(=O)[C@@H](N)Cc1c[nH]cn1)[C@@H](C)O)[C@@H](C)O)C(C)C)C(C)C)C(=O)N[C@@H](C)C(=O)N[C@@H](Cc1c[nH]c2ccccc12)C(=O)N[C@@H](CC(C)C)C(=O)N[C@H](C(=O)N[C@@H](CCC(=O)O)C(=O)N[C@@H](CCCCN)C(=O)N[C@@H](Cc1ccccc1)C(=O)N[C@@H](CCCCN)C(=O)N[C@@H](CCC(=O)O)C(=O)N[C@@H](C)C(=O)N[C@@H](Cc1ccccc1)C(N)=O)C(C)C` [Compound 46, [Aib8,Glu23,Val25,Glu34,Lys35,Phe36,Lys37]-GLP-1-(7-37)-peptidyl-Glu-Ala-Phe amide] (H-H[Aib]EGTFTSDVSSYLEGEAVKEFIAWLVEKFKEAF-NH2), the “4 h Cholesterol Efflux Emax” value in experiment [1] is 98%. In addition, the EC50 on human GLP-1 receptor (setting [2]) came to 0.372 nM.

Turning to `CC[C@H](C)[C@H](NC(=O)[C@H](Cc1ccccc1)NC(=O)[C@H](CCC(=O)O)NC(=O)[C@H](CCCCN)NC(=O)[C@@H](NC(=O)[C@H](C)NC(=O)[C@H](CCC(=O)O)NC(=O)CNC(=O)[C@H](CCC(=O)O)NC(=O)[C@H](CC(C)C)NC(=O)[C@H](Cc1ccc(O)cc1)NC(=O)[C@H](CO)NC(=O)[C@H](CO)NC(=O)[C@@H](NC(=O)[C@H](CC(=O)O)NC(=O)[C@H](CO)NC(=O)[C@@H](NC(=O)[C@H](Cc1ccccc1)NC(=O)[C@@H](NC(=O)CNC(=O)[C@H](CCC(=O)O)NC(=O)C(C)(C)NC(=O)[C@@H](N)Cc1c[nH]cn1)[C@@H](C)O)[C@@H](C)O)C(C)C)C(C)C)C(=O)N[C@@H](C)C(=O)N[C@@H](Cc1c[nH]c2ccccc12)C(=O)N[C@@H](CC(C)C)C(=O)N[C@H](C(=O)N[C@@H](CCC(=O)O)C(=O)N[C@@H](CCCCN)C(=O)N[C@H](C(=O)N[C@@H](CCCCN)C(=O)N[C@@H](CCC(=O)O)C(=O)N[C@@H](CCC(=O)O)C(=O)N[C@@H](CC(C)C)C(N)=O)C(C)C)C(C)C` [Compound 116, [Aib8,Glu23,Val25,Glu34,Lys35,Val36,Lys37]-GLP-1-(7-37)-peptidyl-Glu-Glu-Leu amide] (H-H[Aib]EGTFTSDVSSYLEGEAVKEFIAWLVEKVKEEL-NH2), the “4 h Cholesterol Efflux Emax” value in experiment [1] was 131%. The EC50 at human GLP-1 receptor (setting [2]) was determined as 0.025 nM; at human GLP-1 receptor (setting [3]), 0.016 nM.

In the case of `CC[C@H](C)[C@H](NC(=O)[C@H](Cc1ccccc1)NC(=O)[C@H](CCC(=O)O)NC(=O)[C@H](CCCNC(=N)N)NC(=O)[C@@H](NC(=O)[C@H](C)NC(=O)[C@H](CCC(=O)O)NC(=O)[C@H](CCC(=O)O)NC(=O)[C@H](CCC(=O)O)NC(=O)[C@H](CCSC)NC(=O)[C@H](CCC(N)=O)NC(=O)[C@H](CCCCN)NC(=O)[C@H](CO)NC(=O)[C@H](CC(C)C)NC(=O)[C@H](CC(=O)O)NC(=O)[C@H](CO)NC(=O)[C@@H](NC(=O)[C@H](Cc1ccccc1)NC(=O)[C@@H](NC(=O)CNC(=O)[C@H](CCC(=O)O)NC(=O)C(C)(C)NC(=O)[C@@H](N)Cc1c[nH]cn1)[C@@H](C)O)[C@@H](C)O)C(C)C)C(=O)N[C@@H](CCC(=O)O)C(=O)N[C@@H](Cc1c[nH]c2ccccc12)C(=O)N[C@@H](CC(C)C)C(=O)N[C@@H](CCCCN)C(=O)N[C@@H](CC(N)=O)C(=O)N[C@@H](CCCCN)C(=O)NC(C)(C)C(=O)N1CCC[C@H]1C(=O)N[C@@H](CCC(=O)O)C(=O)N[C@@H](Cc1ccccc1)C(=O)N[C@@H](CC(C)C)C(=O)N[C@@H](CCC(=O)O)C(=O)N[C@@H](CC(C)C)C(=O)N[C@@H](CC(C)C)C(N)=O` [Compound 35, [Aib2,Glu21,Lys29,Aib30,Glu32,Phe33,Leu34,Glu35,Leu36,Leu371-Exendin-4-(1-37)-peptide amide] (H-H[Aib]EGTFTSDLSKQMEEEAVREFIEWLKNK[Aib]PEFLELL-NH2; N-terminus assumed), the “4 h Cholesterol Efflux Emax” value in experiment [1] is 48%. Further, a half-maximal response at human GLP-1 receptor (setting [3]) (EC50) required 0.032 nM.

Consider `CC[C@H](C)[C@H](NC(=O)[C@H](Cc1ccccc1)NC(=O)[C@H](CCC(=O)O)NC(=O)[C@H](CCCCN)NC(=O)[C@@H](NC(=O)[C@H](C)NC(=O)[C@H](CCC(=O)O)NC(=O)CNC(=O)[C@H](CCC(=O)O)NC(=O)[C@H](CC(C)C)NC(=O)[C@H](Cc1ccc(O)cc1)NC(=O)[C@H](CO)NC(=O)[C@H](CO)NC(=O)[C@@H](NC(=O)[C@H](CC(=O)O)NC(=O)[C@H](CO)NC(=O)[C@@H](NC(=O)[C@H](Cc1ccccc1)NC(=O)[C@@H](NC(=O)CNC(=O)[C@H](CCC(=O)O)NC(=O)C(C)(C)NC(=O)[C@@H](N)Cc1c[nH]cn1)[C@@H](C)O)[C@@H](C)O)C(C)C)C(C)C)C(=O)N[C@@H](C)C(=O)N[C@@H](Cc1c[nH]cn1)C(=O)N[C@@H](CC(C)C)C(=O)N[C@H](C(=O)N[C@@H](CCC(=O)O)C(=O)N[C@@H](CCCCN)C(=O)NC(C)(C)C(=O)N[C@@H](CCCCN)C(=O)N[C@@H](CCC(=O)O)C(=O)N[C@@H](Cc1ccccc1)C(=O)N[C@@H](CC(C)C)C(N)=O)C(C)C` [Compound 17, [Aib8,Glu23,Val25,His31,Glu34,Lys35,Aib36,Lys37]-GLP-1-(7-37)-peptidyl-Glu-Phe-Leu amide] (H-H[Aib]EGTFTSDVSSYLEGEAVKEFIAHLVEK[Aib]KEFL-NH2), for which the “4 h Cholesterol Efflux Emax” value in experiment [1] is on record as 102%. The compound further came in with an EC50 on human GLP-1 receptor (setting [3]) of 0.02 nM.

Regarding `CC[C@H](C)[C@H](NC(=O)[C@H](Cc1ccccc1)NC(=O)[C@H](CCC(=O)O)NC(=O)[C@H](CCCCN)NC(=O)[C@@H](NC(=O)[C@H](C)NC(=O)[C@H](CCC(=O)O)NC(=O)CNC(=O)[C@H](CCC(=O)O)NC(=O)[C@H](CC(C)C)NC(=O)[C@H](Cc1ccc(O)cc1)NC(=O)[C@H](CO)NC(=O)[C@H](CO)NC(=O)[C@@H](NC(=O)[C@H](CC(=O)O)NC(=O)[C@H](CO)NC(=O)[C@@H](NC(=O)[C@H](Cc1ccccc1)NC(=O)[C@@H](NC(=O)CNC(=O)[C@H](CCC(=O)O)NC(=O)C(C)(C)NC(=O)[C@@H](N)Cc1c[nH]cn1)[C@@H](C)O)[C@@H](C)O)C(C)C)C(C)C)C(=O)N[C@@H](CCC(N)=O)C(=O)N[C@@H](Cc1c[nH]c2ccccc12)C(=O)N[C@@H](CC(C)C)C(=O)N[C@@H](CC(C)C)C(=O)N[C@@H](CCC(=O)O)C(=O)N[C@@H](CCCCN)C(=O)NC(C)(C)C(=O)N[C@@H](CCCCN)C(=O)N[C@@H](CCC(=O)O)C(=O)N[C@@H](Cc1ccccc1)C(=O)N[C@@H](CC(C)C)C(N)=O` [Compound 79, [Aib8,Glu23,Val25,Gln30,Leu33,Glu34,Lys35,Aib36,Lys37]-GLP-1-(7-37)-peptidyl-Glu-Phe-Leu amide] (H-H[Aib]EGTFTSDVSSYLEGEAVKEFIQWLLEK[Aib]KEFL-NH2), the “4 h Cholesterol Efflux Emax” value in experiment [1] worked out at 100%. Besides, the response on human GLP-1 receptor (setting [3]) was half-maximal at 0.061 nM (EC50).

In the case of `CC[C@H](C)[C@H](NC(=O)[C@H](Cc1ccccc1)NC(=O)[C@H](CCC(=O)O)NC(=O)[C@H](CCCCN)NC(=O)[C@@H](NC(=O)[C@H](C)NC(=O)[C@H](CCC(=O)O)NC(=O)CNC(=O)[C@H](CCC(=O)O)NC(=O)[C@H](CC(C)C)NC(=O)[C@H](Cc1ccc(O)cc1)NC(=O)[C@H](CO)NC(=O)[C@H](CO)NC(=O)[C@@H](NC(=O)[C@H](CC(=O)O)NC(=O)[C@H](CO)NC(=O)[C@@H](NC(=O)[C@H](Cc1ccccc1)NC(=O)[C@@H](NC(=O)CNC(=O)[C@H](CCC(=O)O)NC(=O)C(C)(C)NC(=O)[C@@H](N)Cc1c[nH]cn1)[C@@H](C)O)[C@@H](C)O)C(C)C)C(C)C)C(=O)N[C@@H](C)C(=O)N[C@@H](Cc1c[nH]c2ccccc12)C(=O)N[C@@H](CC(C)C)C(=O)N[C@H](C(=O)N[C@@H](CCC(=O)O)C(=O)N[C@@H](CCCCN)C(=O)N[C@H](C(=O)N[C@@H](CCCCN)C(=O)NCC(=O)N[C@@H](Cc1ccccc1)C(=O)N[C@@H](CC(C)C)C(N)=O)C(C)C)C(C)C` [Compound 115, [Aib8,Glu23,Val25,Glu34,Lys35,Val36,Lys37]-GLP-1-(7-37)-peptidyl-Glv-Phe-Leu amide] (H-H[Aib]EGTFTSDVSSYLEGEAVKEFIAWLVEKVKGFL-NH2), in experiment [1], the “4 h Cholesterol Efflux Emax” value is 94%. Besides, it took 0.032 nM to reach a half-maximal effect on human GLP-1 receptor (setting [3]) (EC50).

On to `CC(C)C[C@H](NC(=O)[C@H](Cc1ccccc1)NC(=O)[C@H](CCC(=O)O)NC(=O)[C@H](CCCCN)NC(=O)C(C)(C)NC(=O)[C@H](CCCCN)NC(=O)[C@H](CCC(=O)O)NC(=O)[C@@H](NC(=O)[C@H](CC(C)C)NC(=O)[C@H](Cc1c[nH]c2ccccc12)NC(=O)[C@H](C)NC(=O)[C@@H](NC(=O)[C@H](Cc1ccccc1)NC(=O)[C@H](CCC(=O)O)NC(=O)[C@H](CCCCN)NC(=O)[C@@H](NC(=O)[C@H](C)NC(=O)[C@H](CCC(=O)O)NC(=O)CNC(=O)[C@H](CCC(=O)O)NC(=O)[C@H](CC(C)C)NC(=O)[C@H](Cc1ccc(O)cc1)NC(=O)[C@H](CO)NC(=O)[C@H](CO)NC(=O)[C@@H](NC(=O)[C@H](CC(=O)O)NC(=O)[C@H](CO)NC(=O)[C@@H](NC(=O)[C@H](Cc1ccccc1)NC(=O)[C@@H](NC(=O)CNC(=O)[C@H](CCC(=O)O)NC(=O)C(C)(C)NC(=O)[C@@H](N)Cc1c[nH]cn1)[C@@H](C)O)[C@@H](C)O)C(C)C)C(C)C)C(C)C)C(C)C)C(N)=O` [Compound 82, [Aib8,Glu23,Val25,Val29,Glu34,Lys35,Aib36,Lys37]-GLP-1-(7-37)-peptidyl-Glu-Phe-Leu amide] (H-H[Aib]EGTFTSDVSSYLEGEAVKEFVAWLVEK[Aib]KEFL-NH2; N-terminus assumed), for which, in experiment [1], the “4 h Cholesterol Efflux Emax” value is reported as 120%. Further, the EC50 in experiment [1] (read-out: 4 h Cholesterol Efflux EC50, ABCA1-mediated efflux (CPT-cAMP induced minus non-induced)) worked out at 690 nM; on human GLP-1 receptor (GLP1R CRE luc 0% HSA EC50 Mean Value), 0.111 nM; at human GLP-1 receptor (GLP1R CRE luc 1% HSA EC50 Mean Value) it was 0.036 nM.

On to “H-HAEGTFTSDVSSYLEGQAAKEFIAWLVEKVGEFLEK-OH [Compound 128]”, for which the “4 h Cholesterol Efflux Emax” value in experiment [1] turned out to be 112%. In addition, the EC50 at human GLP-1 receptor (setting [2]) came out at 0.041 nM; on human GLP-1 receptor (setting [3]), 0.013 nM.
